According to patent publication US20230064978A1, “CYCLIC PEPTIDE RECEPTOR LANTHIONINE SYNTHETASE C-LIKE PROTEIN (LANCL) AND USES THEREOF” (LATERAL IP PTY LTD, priority 2019, published 2023):
Bridges are numbered along the chain shown (N, C = ends). Where no end group is shown, it is not given here.

Columns and labels:
NCI-H358 cells = assay: Confocal imaging of LAT9991F-PAL binding and LANCL1 co-localization, with siRNA knockdown and competitors, in NCI-H358 cells; assay type: cell-based; conditions: SiLANCL1 NCI-H358 cells; competitor 25 μM
Description: (§1) A photoactivatable analog of LAT8881 (LAT9991F (SEQ ID NO:13)-PAL), was used to conduct the experiments. A549 or NCI-H358 cells were treated with LAT9991F-PAL at 2.5 μM during 30 minutes. Fluorescent signal was recorded after that LAT9991F-PAL was immobilized on its target(s) site by UV-crosslinking and the LAT9991F-PAL-target complexes were labeled with the green-fluorescent Alexa Fluor 488 alkyne dye by click-chemistry. Control cells were treated with the vehicle, dimethyl sulfoxide (DMSO), and with LAT9991F-PAL in combination with a large excess of the parent drug LAT8881 or other competitors, GSH, NSC61610 or ABA to evaluate, respectively, the non-specific fluorescent background and the specificity of the staining. For colocalization experiments, subsequently, immunofluorescence staining with an anti-LANCL1 or LANCL2 antibodies and an Alexa 568 (red) conjugated secondary antibody was performed. Images stacks of cells labeled with probes were collected and evaluated for the degree of colocalization of LAT9991F-PAL-target complexes and LANCL1 or LANCL2 using either the Measure Colocalization plugin in Metamorph or the JACoP plugin in ImageJ).
(§2) A549 or NCI-H358 cells (ATCC CCL-185 and ATCC CRL-5807, respectively) were cultured in appropriate medium containing 10% heat-inactivated FBS (Dutscher, #SV30160-036), 1% penicillin/streptomycin (Gibco, #15140-122) and maintained in a humidified 37° C. incubator with 5% CO2.
(§3) LAT9991F-PAL was dissolved in DMSO to make a 10 mM stock solution. Intermediate solutions at 25 μM and 2.5 μM were made in the culture medium from the 10 mM stock solutions of LAT8881 and LAT9991F-PAL, respectively. A two-fold dilution into PBS of each intermediate solution was used for cell treatment. A stock solution at 10 mM was prepared for the other competitors as GSH, NSC61610 and ABA. A final concentration at 25 μM was used for the assay.
ibidiTreat Polymer Coverslips (Ibidi, #80826) were coated with serum during 1 hour at 37° C., followed by Laminin (100 μg\ml) (incubation for 1 hour at 37° C.) for NCI-H358 cells.
(§4) A549 or NCI-H358 cells were seeded onto ibidiTreat Polymer Coverslips (Ibidi, #80826) at 2.5×10^5 cells/cm^2 in 200 μl of complete medium. After 24 hours, the medium was removed and cells were washed with PBS (Gibco, #10010049) and then pre-treated with the Taxol at 1 μM for 3 hours or with H2O2 25 μM for 2 hours. Cells were washed twice with PBS. Induced stress cells or control cells were then exposed to LAT9991F-PAL (2.5 μM) in PBS for 30 minutes, in the presence or absence of LAT8881 (25 μM), or the other compounds used as a competitor, and pre-incubated 10 minutes. After treatment, cells were washed with cold PBS and UV-irradiated (365 nm) in PBS for 20 min. After fixation with 4% paraformaldehyde and permeabilization (0.5% Triton/PBS) (Image-iT™ Fixation/Permeabilization Kit, ThermoFisher, #R37602), the bioorthogonal reaction with Alexa Fluor 488 Alkyne (1 μM) (ThermoFisher, #A10267) was performed at 25° C. using the Click-iT™ Cell Reaction Buffer Kit (ThermoFisher, #C10269) according to the manufacturer protocol. After click reaction, cells were washed twice with PBS, blocked with 3% BSA in PBS for 1 hour and stained with Hoechst 33342 dye (ThermoFisher, #H1399).
(§5) For colocalization experiments, cells were further incubated overnight at 4° C. with a mouse anti-LanCL1 antibody (Invitrogen, PAS-57-107) (dilution 1:1000) or LanCL2 (Atlas Antibodies HPA019711) (dilution 1:1000) in 3% BSA in PBS, washed twice with PBS, and then incubated respectively with a goat anti-mouse […] (Molecular Probes, #A21467) (dilution 1:800) for 1 h in 3% BSA in PBS. After three further washing steps with PBS, cells were embedded in Ibidi Mounting Medium (ibidi, #50001). The specimens were kept at 4° C. in the dark until analysis.
Images were acquired on an Axiovert200M (Zeiss) microscope using a CSU-W1 Yokogawa confocal unit.

A549 cells = assay: Confocal imaging of LAT9991F-PAL binding and LANCL1 co-localization, with siRNA knockdown and competitors, in A549 cells; assay type: cell-based; conditions: SiLANCL1 A549 cells; competitor 25 μM
Description: as §1, §2, §3, §4, §5
Images were acquired on an Axiovert200M (Zeiss) microscope using a CSU-W1 Yokogawa confocal unit. This microscope is equipped with a plan Apochromat X40 dry objective numerical aperture (NA) 0.95 and a Neofluar X100 oil immersion objective NA 1.45. Images were capture with an EMCCD camera (Prior, ProEM 1024×1024).

DRG neurons = assay: Confocal microscopy of PAL probe binding in DRG cell cultures, spinal nerve ligation model; assay type: cell-based, Sprague Dawley rats
Source text: LAT9991-PAL was used in conjunction with confocal microscopy to visualise the location of potential target(s), noting that analgesic agents can have activity at several sites, either on central or peripheral neurons, or on glial or inflammatory cells that are in proximity to neurons. To identify the cell types to which LAT9991-PAL binds, 3-day cell cultures of DRG from neuropathic or control sites were taken from animals with neuropathy due to spinal nerve ligation. Briefly, L5 and L6 spinal nerves of male Sprague Dawley rats were ligated to create a robust and long-lasting mechanical allodynia of the injured hind paw. Presence of neuropathic pain was confirmed 2 weeks post-spinal nerve ligation surgeries (day 14) using von Frey (VF) filaments (up-and-down method) applied on ipsilateral (injured) and contralateral (non-injured) paw). Live DRG cells were dissected out as described previously and incubated with LAT9991-PAL for 1 hour prior to UV irradiation to fix the binding in situ. […] As a specificity control, the binding of LAT9991-PAL to the neuropathic DRG was blocked in the presence of an excess amount of unlabeled LAT9991 peptide.

Substance: YLRIVQCRSVEGSCGF [LAT8881, a cyclic peptide fragment of human growth hormone]
- Competition of LAT9991F-PAL binding by excess competitor (NCI-H358 cells): partially competed off
- Competition of LAT9991F-PAL binding by excess competitor (A549 cells): partially competed off

Substance: LAT9991-PAL: cyclic peptide of SEQ ID NO:12 (LAT9991) conjugated to the PAL (Photo-Activated Labelling) grouping (CRSVEGSCG; disulfide 1-8 (inferred); also: PAL group on N-terminal Cys-Arg part)
- Subcellular location of the target stained by PAL probe (DRG neurons; high-powered imaging, neurons from neuropathic animals (FIG. 2)): expressed just inside the neuronal cell membrane, and with punctate staining in the cytoplasm
- Localisation of PAL probe in DRG cell cultures (DRG neurons; neuropathic vs unaffected DRG, 1 hour incubation before UV irradiation): localised only in neurons from neuropathic DRG and not from unaffected DRG
